The values below come from US20070117770A1, “Human ribosomal DNA (rDNA) and ribosomal RNA (rRNA) nucleic acids and uses thereof” (Cylene Pharmaceuticals, Inc., priority 2005, published 2007).

Common to all, as to assay: Protein kinase inhibition assay
Type in all cases: biochemical

The target in one experiment is Abl(h) (Homo sapiens, UniProt P00519). The note with it: for Mean (Counts - Blanks) / Activity (% Control) / Counts: 2.5 μM. As for the experimental part: (§1) Certain compounds were tested for activity in protein kinase inhibition assays. All substrates were dissolved and diluted to working stocks in de-ionized water, apart from histone H1 (10× working stock in 20 mM MOPS pH 7.0), PDKtide (10× working stock in 50 mM Tris pH 7.0) ATF2 (which is typically stored at a 20× working stock in 50 mM Tris pH 7.5, 150 mM NaCl, 0.1 mM EGTA, 0.03% Brij-35, 50% glycerol, 1 mM benzamidine, 0.2 mM PMSF and 0.1% R-mercaptoethanol), KKLNRTLSFAEPG (SEQ ID NO:203) and RRRLSFAEPG (SEQ ID NO:204) (50 mM HEPES pH 7.4) and GGEEEEYFELVKKKK (SEQ ID NO:205) (20 mM MOPS pH 7.0). All kinases were pre-diluted to a 10× working concentration prior to addition into the assay. The composition of the dilution buffer for each kinase is detailed below.
Abl(h), sequence (P00519 whole entry): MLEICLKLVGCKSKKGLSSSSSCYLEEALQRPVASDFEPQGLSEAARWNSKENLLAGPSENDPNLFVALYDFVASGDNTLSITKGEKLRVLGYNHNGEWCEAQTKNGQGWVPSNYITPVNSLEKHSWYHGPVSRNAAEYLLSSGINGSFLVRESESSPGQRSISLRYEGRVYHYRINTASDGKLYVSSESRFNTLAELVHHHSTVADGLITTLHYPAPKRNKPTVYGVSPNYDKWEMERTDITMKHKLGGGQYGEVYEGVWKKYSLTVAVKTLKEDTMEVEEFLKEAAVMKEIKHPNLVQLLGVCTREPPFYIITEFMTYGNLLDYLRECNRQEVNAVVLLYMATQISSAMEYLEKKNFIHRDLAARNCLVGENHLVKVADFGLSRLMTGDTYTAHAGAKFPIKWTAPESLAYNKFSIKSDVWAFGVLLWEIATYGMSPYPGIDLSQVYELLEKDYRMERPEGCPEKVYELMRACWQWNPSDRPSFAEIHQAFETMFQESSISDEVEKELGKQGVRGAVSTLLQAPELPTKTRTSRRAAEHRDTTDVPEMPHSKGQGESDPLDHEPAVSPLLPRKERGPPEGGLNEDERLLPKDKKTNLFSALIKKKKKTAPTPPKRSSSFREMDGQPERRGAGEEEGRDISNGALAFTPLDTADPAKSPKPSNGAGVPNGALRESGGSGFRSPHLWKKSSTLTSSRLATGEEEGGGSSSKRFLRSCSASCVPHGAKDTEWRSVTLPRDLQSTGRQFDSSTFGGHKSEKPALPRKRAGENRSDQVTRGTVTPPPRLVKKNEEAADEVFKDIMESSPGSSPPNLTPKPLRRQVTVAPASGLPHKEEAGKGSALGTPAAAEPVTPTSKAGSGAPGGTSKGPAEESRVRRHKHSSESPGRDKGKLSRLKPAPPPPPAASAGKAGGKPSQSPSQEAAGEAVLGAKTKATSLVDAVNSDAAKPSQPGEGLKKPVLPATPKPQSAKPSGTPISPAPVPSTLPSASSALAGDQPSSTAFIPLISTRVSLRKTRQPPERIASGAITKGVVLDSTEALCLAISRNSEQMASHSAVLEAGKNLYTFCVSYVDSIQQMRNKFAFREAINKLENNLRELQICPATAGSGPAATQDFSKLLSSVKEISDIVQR
(§2) In a final reaction volume of 25 μl, Abl (h) (5-10 mU) is incubated with 8 mM MOPS pH 7.0, 0.2 mM EDTA, 50 μM EAIYAAPFAKKK (SEQ ID NO:206), 10 mM MgAcetate and [gamma-33P-ATP] (specific activity approx. 500 cpm/pmol, concentration as required). The reaction is initiated by the addition of the MgATP mix. After incubation for 40 minutes at room temperature, the reaction is stopped by the addition of 5 μl of a 3% phosphoric acid solution. 10 μl of the reaction is then spotted onto a P30 filtermat and washed three times for 5 minutes in 75 mM phosphoric acid and once in methanol prior to drying and scintillation counting.

Another experiment has as its target JAK3(h) (Homo sapiens, UniProt P52333). The note with it: read-out: percent residual activity of JAK3(h). As for the experimental part: as §1
as §2, with “μl, JAK3” for “μl, Abl”, “EDTA, 500” for “EDTA, 50”, “μM GGEEEEYFELVKKKK” for “μM EAIYAAPFAKKK”, “ID NO:218),” for “ID NO:206),”

In a further experiment the target is Lyn(h) (Homo sapiens, UniProt P07948). The note with it: read-out: percent residual activity of Lyn(h). The protocol: as §1
Lyn(h), sequence (P07948 whole entry): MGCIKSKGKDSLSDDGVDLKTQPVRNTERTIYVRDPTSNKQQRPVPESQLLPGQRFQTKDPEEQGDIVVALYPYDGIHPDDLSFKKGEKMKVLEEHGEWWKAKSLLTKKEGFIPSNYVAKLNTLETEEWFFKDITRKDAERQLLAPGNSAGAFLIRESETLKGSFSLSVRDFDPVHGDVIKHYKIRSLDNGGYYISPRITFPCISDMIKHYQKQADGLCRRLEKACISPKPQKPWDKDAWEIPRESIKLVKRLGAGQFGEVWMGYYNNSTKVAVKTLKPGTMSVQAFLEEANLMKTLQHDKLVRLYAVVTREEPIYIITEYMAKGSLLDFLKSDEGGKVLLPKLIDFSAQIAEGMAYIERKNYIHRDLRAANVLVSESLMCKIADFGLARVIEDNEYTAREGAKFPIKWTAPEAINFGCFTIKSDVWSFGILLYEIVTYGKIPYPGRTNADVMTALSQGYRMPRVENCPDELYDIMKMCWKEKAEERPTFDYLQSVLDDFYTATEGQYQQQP
In a final reaction volume of 25 μl, Lyn (h) (5-10 mU) is incubated with 50 mM Tris pH 7.5, 0.1 mM EGTA, 0.1 mM Na3VO4, 0.1% R-mercaptoethanol, 0.1 mg/ml poly(Glu, Tyr) 4:1, 10 mM MgAcetate and [gamma-33P-ATP] (specific activity approx. 500 cpm/pmol, concentration as required). The reaction is initiated by the addition of the MgATP mix. After incubation for 40 minutes at room temperature, the reaction is stopped by the addition of 5 μl of a 3% phosphoric acid solution. […]

For the next experiment, the target named is MEK1(h) (Homo sapiens, UniProt Q02750). The settings on record: read-out: percent residual activity of MEK1(h). As for the experimental part:
as §1
The reaction is initiated by the addition of the MgATP. After incubation for 40 minutes at room temperature, 5 μl of this incubation mix is used to initiate a MAPK2 (m) assay, which is described on page 12 of this book.

For a further experiment, the target named is PDGFRβ(h) (Homo sapiens, UniProt P09619). The note with it: read-out: percent residual activity of PDGFRβ(h). The protocol: as §1
as §2, with “PDGFRβ” for “Abl”, “0.1 mg/ml poly(Glu, Tyr) 4:1, 10 mM MnCl2,” for “50 μM EAIYAAPFAKKK (SEQ ID NO:206),”, “Filtermat A” for “P30 filtermat”

A further experiment concerns the target PRAK(h) (Homo sapiens, UniProt Q8IW41). The note with it: read-out: percent residual activity of PRAK(h). As for the experimental part:
as §1
In a final reaction volume of 25 μl, PRAK (h) (5-10 mU) is incubated with 50 mM Na R-glycerophosphate pH 7.5, 0.1 mM EGTA, 30 μM KKLRRTLSVA (SEQ ID NO:212), 10 mM MgAcetate and [gamma-33P-ATP) (specific activity approx. 500 cpm/pmol, concentration as required). The reaction is initiated by the addition of the MgATP mix. After incubation for 40 minutes at room temperature, the reaction is stopped by the addition of 5 μl of a 3% phosphoric acid solution. […]

The target of a further experiment is TBK1(h) (Homo sapiens, UniProt Q9UHD2). The note with it: read-out: percent residual activity of TBK1(h). The protocol:
as §1
as §2, with “μl, TBK1” for “μl, Abl”, “EDTA, 200” for “EDTA, 50”, “μM KRRRALS(p)VASLPGL” for “μM EAIYAAPFAKKK”, “ID NO:214),” for “ID NO:206),”

[1] abbreviates: 45 micromolar ATP, single replicates.
Setting [2] is: 45 micromolar ATP, n = 2, read-out: Mean Activity (% Control).
The mark [3] stands for this setting: 45 micromolar ATP, single replicates, read-out: Activity (% Control).
Where [4] appears, read: read-out: percent residual activity of Abl(h).

Values joined by “and” are separate entries in the source; they are usually repeats but may differ in a detail not shown here. Equal entries are not always repeated. Where two headings read alike, the source gives them in different places.

TBK1(h), sequence (Q9UHD2 whole entry): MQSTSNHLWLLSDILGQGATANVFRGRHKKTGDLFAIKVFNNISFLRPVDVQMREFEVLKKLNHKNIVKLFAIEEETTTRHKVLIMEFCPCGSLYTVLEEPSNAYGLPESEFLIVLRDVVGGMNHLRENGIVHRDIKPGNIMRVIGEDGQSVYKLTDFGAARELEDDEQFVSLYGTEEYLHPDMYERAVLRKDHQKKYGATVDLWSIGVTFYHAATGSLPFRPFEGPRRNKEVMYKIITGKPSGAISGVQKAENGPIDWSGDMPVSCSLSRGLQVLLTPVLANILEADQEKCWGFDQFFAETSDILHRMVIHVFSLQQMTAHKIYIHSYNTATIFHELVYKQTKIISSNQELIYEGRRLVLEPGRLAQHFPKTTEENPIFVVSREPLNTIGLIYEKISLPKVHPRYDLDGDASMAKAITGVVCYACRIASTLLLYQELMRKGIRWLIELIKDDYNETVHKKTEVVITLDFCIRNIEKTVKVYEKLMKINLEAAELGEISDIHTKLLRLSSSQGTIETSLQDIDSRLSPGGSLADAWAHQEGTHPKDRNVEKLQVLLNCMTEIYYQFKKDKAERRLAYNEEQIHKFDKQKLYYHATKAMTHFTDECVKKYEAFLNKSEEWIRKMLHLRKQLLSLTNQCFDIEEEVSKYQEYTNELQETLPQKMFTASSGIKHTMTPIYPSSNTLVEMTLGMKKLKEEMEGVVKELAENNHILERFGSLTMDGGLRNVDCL
MEK1(h), sequence (Q02750 whole entry): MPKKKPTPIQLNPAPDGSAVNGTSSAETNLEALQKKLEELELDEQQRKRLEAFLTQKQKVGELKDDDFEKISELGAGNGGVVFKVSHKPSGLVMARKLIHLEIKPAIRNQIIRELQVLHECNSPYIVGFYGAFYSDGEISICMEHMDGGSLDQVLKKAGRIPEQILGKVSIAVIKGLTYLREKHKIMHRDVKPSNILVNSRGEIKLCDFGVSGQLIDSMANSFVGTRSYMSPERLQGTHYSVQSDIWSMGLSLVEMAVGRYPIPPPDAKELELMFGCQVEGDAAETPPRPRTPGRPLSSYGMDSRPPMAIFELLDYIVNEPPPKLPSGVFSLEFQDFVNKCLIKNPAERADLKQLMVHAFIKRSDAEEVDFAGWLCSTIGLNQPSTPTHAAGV
PRAK(h), sequence (Q8IW41 whole entry): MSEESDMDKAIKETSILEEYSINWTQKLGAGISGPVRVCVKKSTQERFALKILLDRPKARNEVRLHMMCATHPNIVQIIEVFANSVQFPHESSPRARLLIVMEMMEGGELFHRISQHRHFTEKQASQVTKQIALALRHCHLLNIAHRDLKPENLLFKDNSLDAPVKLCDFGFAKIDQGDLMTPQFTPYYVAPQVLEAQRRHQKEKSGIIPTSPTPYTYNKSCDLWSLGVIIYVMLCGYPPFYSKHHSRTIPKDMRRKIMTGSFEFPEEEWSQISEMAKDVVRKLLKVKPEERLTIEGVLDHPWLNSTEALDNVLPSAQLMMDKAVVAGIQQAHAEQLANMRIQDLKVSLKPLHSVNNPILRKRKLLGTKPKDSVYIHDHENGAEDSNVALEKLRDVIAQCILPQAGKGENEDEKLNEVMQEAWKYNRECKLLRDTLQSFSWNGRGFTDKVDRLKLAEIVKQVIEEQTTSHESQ
JAK3(h), sequence (P52333 whole entry): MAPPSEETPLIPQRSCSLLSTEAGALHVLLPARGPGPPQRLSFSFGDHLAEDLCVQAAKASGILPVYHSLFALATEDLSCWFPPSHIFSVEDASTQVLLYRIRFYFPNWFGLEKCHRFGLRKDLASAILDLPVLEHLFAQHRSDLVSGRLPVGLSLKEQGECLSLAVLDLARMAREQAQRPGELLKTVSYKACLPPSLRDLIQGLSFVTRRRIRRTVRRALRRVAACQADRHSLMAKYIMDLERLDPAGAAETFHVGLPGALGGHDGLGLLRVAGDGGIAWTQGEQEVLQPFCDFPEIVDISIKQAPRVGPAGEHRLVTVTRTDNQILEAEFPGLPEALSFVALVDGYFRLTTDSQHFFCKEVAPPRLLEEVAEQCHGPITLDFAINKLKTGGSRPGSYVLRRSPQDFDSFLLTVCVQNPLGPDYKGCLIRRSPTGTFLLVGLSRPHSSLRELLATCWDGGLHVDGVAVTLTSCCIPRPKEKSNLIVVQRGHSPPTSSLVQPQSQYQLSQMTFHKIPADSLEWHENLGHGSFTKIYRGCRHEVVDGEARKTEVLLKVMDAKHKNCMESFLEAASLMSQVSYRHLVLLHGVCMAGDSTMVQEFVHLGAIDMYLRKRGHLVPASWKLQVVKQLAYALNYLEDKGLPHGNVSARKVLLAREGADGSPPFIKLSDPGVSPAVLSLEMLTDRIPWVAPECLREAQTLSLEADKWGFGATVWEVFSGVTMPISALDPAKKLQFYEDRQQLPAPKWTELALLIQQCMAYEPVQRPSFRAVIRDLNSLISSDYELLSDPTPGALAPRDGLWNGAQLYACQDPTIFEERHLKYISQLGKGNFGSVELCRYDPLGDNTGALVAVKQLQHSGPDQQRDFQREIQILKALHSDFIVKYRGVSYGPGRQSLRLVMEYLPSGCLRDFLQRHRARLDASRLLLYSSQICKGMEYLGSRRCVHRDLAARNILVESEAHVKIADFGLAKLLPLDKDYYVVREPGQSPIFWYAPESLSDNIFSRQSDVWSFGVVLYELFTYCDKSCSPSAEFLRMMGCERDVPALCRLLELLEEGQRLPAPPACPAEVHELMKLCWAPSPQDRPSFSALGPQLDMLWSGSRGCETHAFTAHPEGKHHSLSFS

For `CN1CCCC1CCNC(=O)c1cn2c3c(c(N4CCC(c5cnccn5)C4)c(F)cc3c1=O)Oc1cc3ccccc3cc1-2` (stereo not drawn) [Compound A-1], at Abl(h) (45 micromolar ATP), the “Mean (Counts - Blanks)” value was 12522. Moreover, the “Activity (% Control)” value on Abl(h) (setting [1]) is recorded as 25 % Control. Moreover, the Counts on Abl(h) (setting [1]) is 15236 and 14630. The remaining activity at 2.5 µM amounted to 26% on Abl(h) (setting [2]); 27% on Abl(h) (setting [3]); 26% on Abl(h) (setting [4]); 112% on JAK3(h); 110% at Lyn(h); 87% at MEK1(h). Also, the remaining activity at 2.5 µM was 103% on PDGFRβ(h), 105% on PRAK(h) and 71% on TBK1(h).
In the case of `CC(=O)N1CCN(c2ccc3c(=O)c(C(=O)NCCN4CCCC4)c4n(C)c5ccccc5n4c3n2)CC1` [Compound B-1], the “Mean (Counts - Blanks)” value at Abl(h) (45 micromolar ATP) is reported as 47944. Further, the “Activity (% Control)” value at Abl(h) (setting [1]) amounted to 98 % Control. For the same compound, the Counts at Abl(h) (setting [1]) was 51051 and 49659. The remaining activity at 2.5 µM was 100% on Abl(h) (setting [2]); 101% at Abl(h) (setting [3]); 100% at Abl(h) (setting [4]); 109% on JAK3(h); 122% on Lyn(h); 90% on MEK1(h). The remaining activity at 2.5 µM on PDGFRβ(h) is 103%; at PRAK(h), 111%; on TBK1(h), 114%.
